# Read-outs that look alike come from different tables or passages of the source.
# Legend:
# [1] = system: normal human primary hepatocytes; assay: Cytotoxicity, human primary hepatocytes; format: cell-based; details: 24 h
# [2] = Giant unilamellar vesicle integrity; details: DOPC:DOPG 7:3
# [3] = system: MRSA-MW2-infected C. elegans; assay: C. elegans-MRSA killing assay; format: in vivo, Caenorhabditis elegans; details: for C. elegans protected against MW2-induced death: at concentrations above in vitro MICs
# [4] = system: clinical S. aureus strains; assay: Activity against panel of clinical S. aureus strains; format: cell-based, Staphylococcus aureus
# [5] = system: persisters formed by clinical isolates including VRS1; assay: Viability of persisters of clinical S. aureus isolates; format: cell-based, Staphylococcus aureus; details: 8–10× MIC; including multi-drug resistant VRS1
# [6] = system: Enterococcus faecium strains; assay: Activity against Enterococcus faecium strains; format: cell-based
# human erythrocytes = assay: Haemolytic activity; format: cell-based; details: 2% human erythrocytes, 1 h
# [7] = system: Exponential-phase S. aureus MW2; assay: Cell lysis; format: cell-based, Staphylococcus aureus; details: 10× MIC, 4 h, OD600
# MRSA MW2 biofilms = assay: Persisters in MRSA biofilms; format: cell-based, Staphylococcus aureus
# Gram-negative species = assay: Activity against Gram-negative species; format: cell-based
# [8] = system: MW2-infected neutropenic mice; assay: Deep-seated mouse thigh MRSA infection model; format: in vivo; details: 20 mg kg^−1 i.p. alone or in combination with gentamicin 30 mg kg^−1 s.c.
# [9] = system: MRSA growing and persister cells; assay: Synergism with gentamicin; format: cell-based, Staphylococcus aureus
# S. aureus MW2 persisters [10] = assay: Viability of MRSA MW2 persisters; format: cell-based, Staphylococcus aureus; details: for eradication of MRSA persisters: at 8 μg ml^−1; for killing of MRSA persister cells: stationary-phase MW2, 4 h
# MRSA strain MW2 = assay: MIC / growth inhibition of MRSA strain MW2; format: cell-based, Staphylococcus aureus; details: for minimum inhibitory concentration (MIC): MRSA strain MW2
# S. aureus MW2 [11] = assay: Transmission electron microscopy of retinoid-treated cells; format: cell-based, Staphylococcus aureus; details: 10× MIC
# S. aureus MW2 [12] = format: cell-based, Staphylococcus aureus; details: for retinoid-resistant mutants by plating: 10^10 CFU MW2 plated on agar with 2.5×, 5× or 10× MIC
# [13] = system: Exponential-phase MRSA cells (strain MW2); assay: Killing kinetics, exponential-phase MRSA MW2; format: cell-based, Staphylococcus aureus; details: 10× MIC, level of detection 2 × 10^2 CFU ml^−1
# [14] = system: exponential-phase S. aureus MW2 cells; assay: SYTOX Green membrane permeabilization, exponential-phase MW2; format: cell-based, Staphylococcus aureus
# S. aureus MW2 persisters [15] = assay: SYTOX Green membrane permeabilization, MW2 persisters; details: SYTOX Green uptake
# S. aureus MW2 persisters [16] = details: not told
# [17] = cited from earlier work
# [18] = Hepatic and renal toxicity in mice; format: in vivo, mouse; details: every 12 h for 3 days, i.p.; analogue 2 10–80 mg kg^−1, vancomycin 25 mg kg^−1; P > 0.7
# [19] = 100 days serial passage in sub-MIC CD437
compound,measurement,setting,value
O=C(O)c1ccc2cc(-c3ccc(O)c(C45CC6CC(CC(C6)C4)C5)c3)ccc2c1 [CD437],median lethal concentration (LC50),[1],≥ 20 µg/mL
same,integrity of giant unilamellar vesicles,[2],disrupted the integrity
same,C. elegans protected against MW2-induced death,[3],100%
same,activity against panel of clinical S. aureus strains,[4],potent activity
same,time to complete eradication of persisters of 13 clinical isolates,[5],1 to 4 h
same,activity against Enterococcus faecium strains,[6],potent activity
same,median haemolytic concentration (HC50),human erythrocytes,greater than 32 μg ml^−1
same,direct lysis of bacterial cells,[7],did not lyse bacterial cells directly
same,persisters in MRSA biofilms killed,MRSA MW2 biofilms; 16× MIC,around 90%
same,persisters in MRSA biofilms killed,MRSA MW2 biofilms; 32× MIC,~100%
same,activity against Gram-negative species,Gram-negative species,not against Gram-negative species
same,efficacy in thigh infection model,[8],exhibited efficacy
same,synergism with gentamicin,[9],significant synergism
same,eradication of MRSA persisters,S. aureus MW2 persisters [10],completely eradicated MRSA persisters
same,killing of MRSA persister cells,S. aureus MW2 persisters [10],killed MRSA-persister cells
same,minimum inhibitory concentration (MIC),MRSA strain MW2,1 µg/mL
same,formation of mesosome-like structures,S. aureus MW2 [11],caused the formation of mesosome-like structures
same,retinoid-resistant mutants by plating,S. aureus MW2 [12],unable to obtain retinoid-resistant mutants
same,increase in resistance after serial passage,S. aureus MW2 [12]; [19],twofold
same,levels of MW2 after two hours,[13],below the limit of detection
same,membrane permeabilization (SYTOX Green uptake),[14]; exponential-phase MW2,induced membrane permeabilization
same,permeabilization of MRSA-persister membranes,S. aureus MW2 persisters [15],induced rapid permeabilization
O=C(O)c1ccc(-c2ccc3cc(O)c(C45CC6CC(CC(C6)C4)C5)cc3c2)cc1 [CD1530],median lethal concentration (LC50),[1],≥ 20 µg/mL
same,integrity of giant unilamellar vesicles,[2],disrupted the integrity
same,C. elegans protected against MW2-induced death,[3],100%
same,activity against panel of clinical S. aureus strains,[4],potent activity
same,time to complete eradication of persisters of 13 clinical isolates,[5],1 to 4 h
same,activity against Enterococcus faecium strains,[6],potent activity
same,median haemolytic concentration (HC50),human erythrocytes,greater than 32 μg ml^−1
same,direct lysis of bacterial cells,[7],did not lyse bacterial cells directly
same,persisters in MRSA biofilms killed,MRSA MW2 biofilms; 16× MIC,around 90%
same,persisters in MRSA biofilms killed,MRSA MW2 biofilms; 32× MIC,~100%
same,activity against Gram-negative species,Gram-negative species,not against Gram-negative species
same,synergism with gentamicin,[9],significant synergism
same,eradication of MRSA persisters,S. aureus MW2 persisters [10],completely eradicated MRSA persisters
same,killing of MRSA persister cells,S. aureus MW2 persisters [10],killed MRSA-persister cells
same,minimum inhibitory concentration (MIC),MRSA strain MW2,1 µg/mL
same,formation of mesosome-like structures,S. aureus MW2 [11],caused the formation of mesosome-like structures
same,retinoid-resistant mutants by plating,S. aureus MW2 [12],unable to obtain retinoid-resistant mutants
same,increase in resistance after serial passage,S. aureus MW2 [12]; [19],twofold
same,permeabilization of MRSA-persister membranes,S. aureus MW2 persisters [16],induced rapid permeabilization
same,levels of MW2 after two hours,[13],below the limit of detection
same,membrane permeabilization (SYTOX Green uptake),[14],induced membrane permeabilization
COc1ccc(-c2ccc3cc(C(=O)O)ccc3c2)cc1C12CC3CC(CC(C3)C1)C2 [adapalene],activity against MRSA,MRSA strain MW2; MRSA MW2,ineffective against MRSA
O=C(O)/C=C/c1ccc(-c2ccc(O)c(C34CC5CC(CC(C5)C3)C4)c2)cc1 [adarotene],integrity of giant unilamellar vesicles,[2],disrupted the integrity
same,MRSA-induced death of C. elegans,[3]; in vivo,prevented the MRSA-induced death of C. elegans
same,median haemolytic concentration (HC50),human erythrocytes,greater than 32 μg ml^−1
same,killing of MRSA persister cells,S. aureus MW2 persisters [10],inactive against persister cells
same,MIC,"MRSA strain MW2; Staphylococcus aureus, MRSA, read-out: minimum inhibitory concentration (MIC)",2 µg/mL
same,retinoid-resistant mutants by plating,S. aureus MW2 [12],unable to obtain retinoid-resistant mutants
same,increase in resistance after serial passage,S. aureus MW2 [12]; [19],twofold
same,excretion,[17],excreted rapidly
same,membrane permeabilization (SYTOX Green uptake),[14]; exponential-phase MW2,induced membrane permeabilization
O=C(O)c1cn(C2CC2)c2cc(N3CCNCC3)c(F)cc2c1=O [ciprofloxacin],increase in resistance after serial passage,S. aureus MW2 [12]; serial passage in ciprofloxacin for 100 days,256 fold
CN[C@H](CC(C)C)C(=O)N[C@H]1C(=O)N[C@@H](CC(N)=O)C(=O)N[C@H]2C(=O)N[C@H]3C(=O)N[C@H](C(=O)N[C@H](C(=O)O)c4cc(O)cc(O)c4-c4cc3ccc4O)[C@H](O)c3ccc(c(Cl)c3)Oc3cc2cc(c3O[C@@H]2O[C@H](CO)[C@@H](O)[C@H](O)[C@H]2O[C@H]2C[C@](C)(N)[C@H](O)[C@H](C)O2)Oc2ccc(cc2Cl)[C@H]1O [vancomycin],ALT and BUN versus control,[18],lack of significant differences
daptomycin,increase in resistance after serial passage,S. aureus MW2 [12]; serial passage in daptomycin for 15 days,tenfold
